Experimental findings from US11014896B2, “TRPA1 and TRPV4 inhibitors and methods of using the same for organ-specific inflammation and itch” (Duke University, priority 2014, dated 2021) are described below.

Entries after “also recorded” stand apart in the source; their conditions may differ.

Assay [1] concerns the target TRPV4 (Homo sapiens, UniProt Q9HBA0). Briefly: TRPV4-mediated calcium influx in N2a cells with targeted expression of human TRPV4. Type of assay: cell-based. Set-up: expressed in transfected cells; host or cells: N2a cells. The following applies: 2.5 μM inhibitor, pre-incubation 10 min; TRPV4 activated with 10 nM GSK101. As for the experimental part: Compounds (GSK205, 16-12, 16-13, 16-14, 16-18, 16-8, and 16-8/18hy) were tested for their effect on TRPV4-mediated calcium influx in N2a cultured cells with targeted expression of human TRPV4. Ca2+ imaging was performed according to Li et al. (Environ. Health Perspect. 2011, 119, 784-93) and Moore et al. (Proc. Natl. Acad. Sci. U.S.A. 2013, 110, E3225-E3234). Briefly, Ca2+ imaging of primary mouse epidermal keratinocytes (1° MK) in response to chemical activation of TRPV4 was conducted after loading with 2 μM fura2-AM, following a ratiometric Ca2+-imaging protocol with 340/380 nm blue light for dual excitation. Ratios of emissions were acquired at 0.5 Hz. ΔR/R0 was determined as the fraction of the increase of a given ratio over baseline ratio, divided by baseline ratio. For stimulation of cells with UVB, where fura-2 was not suitable because of the proximity of stimulation with 340/380 nm vs. 295 nm, 2 μM fluo4-AM was used instead. Ca2+ imaging was carried out at 488 nm excitation, acquisition of emissions at 0.5 Hz, expressed as ΔF/F0. TRPV4 was activated with 10 nM GSK101, a specific activator, which had no effect on RFP-transfected cells. Each of the […] compounds were added to a concentration of 2.5 μM, and its effect was observed.

Assay [2] in a line: UVB-overexposure evoked nocifensive behavior (mouse model for sunburn), topical treatment. The format is in vivo. The note with it: 0.5 mM in 40 μL, n=4/group. As for the experimental part: Compounds were tested for their effect on nocifensive behavior (response to pain) following UVB overexposure. Behavioral tests were performed to evaluate the decrease in withdrawal thresholds in response to mechanical von Frey hair or thermal stimuli applied to hind paws. The Von-Frey apparatus (Ugo Basile) applied a mechanical stimulus with a flexible steel wire from underneath the hind paw. The force leading to withdrawal was determined. For the thermal stimuli test, paws were stimulated with heat from underneath applied by an infrared beam (Hargreave's test apparatus; Ugo Basile), and withdrawal latencies were recorded. The withdrawal thresholds were ascertained before and after UV exposure. Mice were exposed to UVB 3-5 days after the last application of tam/oil, using a Bio-Rad Gel Doc 2000 UV transilluminator (302 nm) for 5 min with an exposure of 600 mJ/cm^2. This represents 5-10 times the minimal erythema-inducing dose, in keeping with the rationale of inducing sunburn and studying sunburn-evoked pain.

In assay [3] the test system is IL-1β. Briefly: Keratinocyte IL-1β expression in UVB-exposed footpad after topical treatment. Type of assay: in vivo, mouse. The following applies: 5 mM GSK205 topical. As for the experimental part: GSK205 topical treatment: A viscous solution of 68% EtOH/5% glycerol plus 1 mM or 5 mM GSK205 (none for control) was applied to hindpaws by rubbing in 20 μL, applied at time-points 1 hour and again 10 min before UV exposure.
Routine procedures were followed as described previously (Chen et al., 2009). Mice were perfused transcardially with 30 mL PBS, followed by 30 mL 4% paraformaldehyde. Tissues, including the L5 DRGs (bilateral), and footpad preparations, were dissected and post-fixed in 4% paraformaldehyde. Tissue blocks were further cryoprotected in 30% sucrose in PBS for 24-48 hours. For mouse TRPV4, keratin-specific antibodies, phospho-ERK, IL-6, IL-1β, CXCL5 and caspase-1, tissue was prepared as frozen blocks and subsequently sectioned on a cryostat. For CD68, CD15 (neutrophil elastase) and CD3, mouse skin was prepared by 2% PFA perfusion. […]

Assay [4] is described as follows: Formalin-evoked nocifensive (rubbing) behavior, whisker-pad injection, in vivo pain model in mice. Also on record: species or system mouse. The following applies: for formalin-induced nocifensive behavior, time course: FIG. 21D; for formalin-induced nocifensive behavior, quantitation, in particular second phase: compounds pre-injected at 0.5 mM/10 μL into whiskerpad 15 min before 4% formalin. As for the experimental part: Compounds were tested for their effect in reducing pain using an in vivo pain model in mice. For mouse formalin-evoked irritant behavior measurements, mice were well-fed, well-rested, and tested at the same time of day, at the same time-point of their circadian rhythm. They were allowed to acclimate to a plexiglas chamber for at least 30 min before testing, and received 10 μL subcutaneous injection of 4% of formalin (diluted from an aqueous solution of commercial 37% formaldehyde with normal saline (NS)) through a 30-gauge needle into the right whiskerpad, as further detailed in Luccarini et al. (J. Pain, 2006, 7, 908-914). Normal saline was used as control injection. After injection, mice were immediately placed back into the chamber and the rubbing behavior was recorded by a private consumer-type video-camera for a 45 min observation period. The recording time was divided into 9 blocks of 5 min, and a nociceptive score was determined per block by measuring the time that the animals spent rubbing the injected area predominantly with the ipsilateral fore-paw and rarely with hind-paw. This rubbing behavior with fore-paw is evoked by pain, which is distinct from itch behavior. Behavioral analysis was conducted by observers blinded to treatment.
To investigate the effects of the specific compounds GSK205, 16-8, and 16-8/18hy on formalin-induced nociceptive behavior, mice received a single subcutaneous injection of the compounds into the whiskerpad (10 μL, dissolved in 4% DMSO) 15 min before formalin injection. Control animals received the same volume of NS, 4% DMSO.

For assay [5], the target named is T1, human TRPA1 (Homo sapiens, UniProt O75762).
T1 construct: expressed in transfected cells; host or cells: N2a cells, pcDNA3.1 plasmid, co-transfected with an eGFP plasmid
Briefly: Ca2+ transient in N2a cells transfected with human TRPA1. The format is cell-based. As for the experimental part: Compounds were tested for their effect on TRPA1. N2a permanent cells were transfected with human TRPA1 cDNA, using a pcDNA3.1 expression plasmid. They were co-transfected with eGFP-expressing plasmid, or, for control, with eGFP plasmid only.

T1 sequence (O75762 whole entry): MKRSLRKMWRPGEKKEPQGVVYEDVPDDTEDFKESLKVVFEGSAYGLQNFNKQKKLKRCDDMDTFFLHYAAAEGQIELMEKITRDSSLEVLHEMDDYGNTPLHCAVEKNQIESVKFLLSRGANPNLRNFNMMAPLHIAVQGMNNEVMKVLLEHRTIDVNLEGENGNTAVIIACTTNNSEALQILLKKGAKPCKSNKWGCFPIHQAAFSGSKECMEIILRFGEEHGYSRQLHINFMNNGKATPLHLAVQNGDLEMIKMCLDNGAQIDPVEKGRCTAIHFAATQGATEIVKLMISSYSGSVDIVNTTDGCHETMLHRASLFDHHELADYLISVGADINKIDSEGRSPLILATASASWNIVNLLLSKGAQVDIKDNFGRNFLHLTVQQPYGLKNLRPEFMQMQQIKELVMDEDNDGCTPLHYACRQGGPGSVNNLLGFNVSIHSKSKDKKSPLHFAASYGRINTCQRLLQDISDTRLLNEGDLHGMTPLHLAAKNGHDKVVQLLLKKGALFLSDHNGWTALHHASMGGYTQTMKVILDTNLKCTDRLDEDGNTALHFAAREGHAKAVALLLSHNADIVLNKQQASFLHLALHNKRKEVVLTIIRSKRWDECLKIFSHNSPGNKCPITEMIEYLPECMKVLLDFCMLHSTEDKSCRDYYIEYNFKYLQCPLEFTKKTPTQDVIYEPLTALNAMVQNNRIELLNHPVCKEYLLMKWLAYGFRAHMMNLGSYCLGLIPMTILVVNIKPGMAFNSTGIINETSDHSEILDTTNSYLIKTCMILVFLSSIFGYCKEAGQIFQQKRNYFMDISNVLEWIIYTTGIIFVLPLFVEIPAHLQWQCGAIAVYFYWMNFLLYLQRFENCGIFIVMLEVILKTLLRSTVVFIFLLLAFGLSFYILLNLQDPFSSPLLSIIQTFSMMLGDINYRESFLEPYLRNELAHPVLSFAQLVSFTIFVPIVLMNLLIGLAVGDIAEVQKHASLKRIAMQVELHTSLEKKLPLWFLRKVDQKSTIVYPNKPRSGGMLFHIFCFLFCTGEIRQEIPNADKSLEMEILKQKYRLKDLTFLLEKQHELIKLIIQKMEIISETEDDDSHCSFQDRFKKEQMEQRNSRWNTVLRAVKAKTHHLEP
Sequence of TRPV4 (Q9HBA0 whole entry): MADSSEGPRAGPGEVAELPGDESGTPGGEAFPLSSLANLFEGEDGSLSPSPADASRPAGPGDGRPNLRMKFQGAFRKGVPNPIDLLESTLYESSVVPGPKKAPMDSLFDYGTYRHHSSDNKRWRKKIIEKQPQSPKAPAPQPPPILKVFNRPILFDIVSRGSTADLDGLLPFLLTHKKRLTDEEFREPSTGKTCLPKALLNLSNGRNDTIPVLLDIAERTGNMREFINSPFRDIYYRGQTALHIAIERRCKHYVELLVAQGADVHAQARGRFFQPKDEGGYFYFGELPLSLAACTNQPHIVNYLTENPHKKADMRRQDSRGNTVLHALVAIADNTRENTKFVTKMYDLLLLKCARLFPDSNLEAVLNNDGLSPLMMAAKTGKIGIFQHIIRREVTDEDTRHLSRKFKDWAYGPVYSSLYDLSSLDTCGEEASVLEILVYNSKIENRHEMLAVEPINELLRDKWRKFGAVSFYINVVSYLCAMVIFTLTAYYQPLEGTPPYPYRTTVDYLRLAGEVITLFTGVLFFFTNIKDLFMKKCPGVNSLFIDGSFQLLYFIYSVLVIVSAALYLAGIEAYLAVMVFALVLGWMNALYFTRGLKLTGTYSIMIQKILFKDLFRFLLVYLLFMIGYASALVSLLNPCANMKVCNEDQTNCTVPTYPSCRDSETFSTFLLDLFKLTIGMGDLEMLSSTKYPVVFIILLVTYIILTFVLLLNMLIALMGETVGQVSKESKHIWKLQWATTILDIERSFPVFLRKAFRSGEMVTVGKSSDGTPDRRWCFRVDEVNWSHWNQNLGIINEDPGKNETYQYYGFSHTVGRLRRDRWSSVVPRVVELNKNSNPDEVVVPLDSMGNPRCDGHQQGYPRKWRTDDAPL

`CN(CCc1ccc(Nc2nc(-c3cccnc3)cs2)cc1)Cc1ccccc1` [GSK205]: the “inhibition of TRPV4-mediated calcium influx (peak calcium concentration in the cells)” value in assay [1] was “very low potency”. Moreover, the “UVB-overexposure evoked nocifensive behavior (response to pain)” value in assay [2] is listed as “as effective as vehicle”. The “keratinocyte expression of IL-1β in UVB-exposed footpad” value in assay [3] was “failed to upregulate; also recorded: attenuates keratinocyte expression of IL-1β”. For the same compound, the “formalin-induced nocifensive behavior, time course” value in assay [4] (0.5 mM/10 μL) is “not different from control”. The “formalin-induced nocifensive behavior, quantitation, in particular second phase” value in assay [4] is “lack of effect”. For the same compound, in assay [5] (doses below or equaling 25 μM), the “inhibition of TRPA1 activity” value is given as “did not inhibit TRPA1 activity”.

Consider `CN(CCc1ccc(Nc2nc(-c3ccccc3)cs2)cc1)Cc1ccccc1` [Compound 16-8], for which the “inhibition of TRPV4-mediated calcium influx (peak calcium concentration in the cells)” value in assay [1] is “most potent”. Moreover, the “UVB-overexposure evoked nocifensive behavior (response to pain)” value in assay [2] is “especially effective in reducing the response to pain”. In addition, the “formalin-induced nocifensive behavior at the 45-min time-point” value in assay [4] (0.5 mM/10 μL, 45-min time-point) is “reduction to control levels”. The “formalin-induced nocifensive behavior, time course” value in assay [4] (0.5 mM/10 μL) is “significantly attenuated nocifensive behavior”. In addition, in assay [4], the “formalin-induced nocifensive behavior, quantitation, in particular second phase” value is “significant attenuation of nocifensive behavior”. Also, the “inhibitory activity against human TRPA1” value in assay [5] (5 μM compound) was “inhibitory activity”.
